Measurements: PMC7917639, “Nopol-Based Quinoline Derivatives as Antiplasmodial Agents” (Molecules, 2021)
“And” between values parts separate entries of the source, which are not always exact repeats. Equal values may be shown once. Read-outs that look alike come from different tables or passages of the source.

How the values were obtained:
[1] = system: P. falciparum 3D7 (Pf3D7, chloroquine-sensitive strain); assay: Pf3D7 asexual blood-stage growth inhibition, SYBR Green fluorescence assay; type: cell-based, Plasmodium falciparum; details: for Pf3D7 selectivity index (SI, CC50/EC50): Hep G2 CC50 / Pf3D7 EC50; for EC50: read-out: Pf3D7 EC50; for Antiplasmodial activity against Pf3D7 (in words): chloroquine-sensitive strain
Method: a. Pf3D7: 100 μL of complete media (Sigma-Aldrich’s RPMI 1640, 25 mM HEPES, 10 μg/mL gentamicin, 0.5 mM hypoxanthine supplemented with NaHCO3 and 0.5% Albumax II, 37 °C) containing compounds (50–0.3 µM) or 100 µM chloroquine were added to 96 well plates in triplicates. This was followed by the addition of 100 µL erythrocytic asexual culture of Pf3D7 (10% hematocrit and 0.25% ring stage parasitemia), maintained at atmospheric conditions of 1% oxygen, 5% carbon dioxide, and 94% nitrogen, and allowed to grow for 96 h at 37 °C. The cultures were then frozen at −80 °C overnight and thawed at 37 °C for 4 h. Aliquots (100 µL) from each well were transferred to black 96-well plates, 100 μL of 2× SYBR Green (Molecular Probes) in lysis buffer (20 mM Tris at pH 7.5, 5 mM EDTA, 0.008% saponin, 0.08% Triton X-100) was added to each well and mixed thoroughly with a pipette. The plates were incubated in the dark at room temperature for 1 h and read at λex 485 nm and λem 530 nm. Infected and untreated red blood cells (iRBC) cultures served as negative control. Percent inhibitory activities were calculated using (=100 − 100*((Sample − 100 µM CQ)/(iRBC − 100 µM CQ)) and used to plot sigmoidal inhibition curves to obtain the EC50 values.

[2] = system: Human hepatocarcinoma cell line (Hep G2); assay: Cytotoxicity assay (MTT); type: cell-based; details: 72 h
Method: (§1) Human hepatocarcinoma cell line (Hep G2, ATCC CRL-11997TM) was used for cytotoxicity studies as previously described. The cells were grown in complete medium (DMEM:F12 containing L-glutamine and sodium bicarbonate, 10% FBS, 1% penicillin/streptomycin, Thermo Fisher Scientific) at 37 °C in 5% CO2 environment. Cells (198 µL, 5 × 10^5/mL) were seeded into 96-well plates and incubated overnight. The cells were treated with the compounds (160–1.25 µM, in triplicates) or DMSO (1%) for 72 h. The cell medium was removed and replaced with DMEM:F12 medium containing MTT (0.5 mg/mL) was added to the cells and incubated for 1.5 h. The MTT-containing medium was gently removed and replaced with DMSO (200 µL/well). The contents of each well were then repeatedly mixed with a multichannel pipette and incubated for 10 min. The plates were read at 570 nm. DMSO-treated (1%) cells were used as negative assay control and SDS (10%) was used as assay positive control. Percent cell viabilities were expressed as a percentage of the mean viability of DMSO-treated (1%) cells.

[3] = system: PfK1; assay: PfK1 erythrocytic stage growth inhibition, [3H]-hypoxanthine incorporation assay; type: cell-based, Plasmodium falciparum; details: for EC50: erythrocytic stages, 48 h + 24 h with 3H-hypoxanthine; for Antiplasmodial activity against K1 strain (in words): multidrug-resistant strain; for PfK1 selectivity index (SI, CC50/EC50): Hep G2 CC50 / PfK1 EC50
Method: b. PfNH54 and PfK1: The growth inhibitory activities of the compounds against erythrocytic stages of PfNH54 and PfK1 were determined using the [^3H]-hypoxanthine incorporation assay as previously reported. Parasites in RPMI 1640 medium containing […] (without hypoxanthine) were treated with compounds (50–0.3 µM) in 96 well plates for 48 h at 37 °C in 92% N2, 5% CO2, and 3% O2. ^3H-hypoxanthine (0.5 μCi) was added to each well, incubated for an additional 24 h, harvested onto glass-fiber filters, and washed with distilled water. Radioactivity at each compound concentration was counted using a Betaplate™ liquid scintillation counter (Wallac, Zurich), and the results were recorded as counts per minute (CPM) per well. The CPMs were expressed as a percentage of the CPMs from the untreated controls and used to estimate the EC50 from sigmoidal inhibition curves. Artemisinin and CQ were used as positive controls.

[4] = system: PfNF54; assay: PfNF54 erythrocytic stage growth inhibition, [3H]-hypoxanthine incorporation assay; type: cell-based, Plasmodium falciparum; details: for EC50: erythrocytic stages, 48 h + 24 h with 3H-hypoxanthine; for PfNF54 selectivity index (SI, CC50/EC50): Hep G2 CC50 / PfNF54 EC50
Method: b. PfNH54 and PfK1: The growth inhibitory activities of the compounds against erythrocytic stages of PfNH54 and PfK1 were determined using the [^3H]-hypoxanthine incorporation assay as previously reported. […] The CPMs were expressed as a percentage of the CPMs from the untreated controls and used to estimate the EC50 from sigmoidal inhibition curves. Artemisinin and CQ were used as positive controls.

[5] = Cytotoxicity assay (MTT); type: cell-based, Human; details: human
Method: as §1

[6] = erythrocytic asexual culture, 96 h, SYBR Green
[7] = Plasmodium falciparum, 3D7, erythrocytic asexual culture, 96 h, SYBR Green
[8] = Plasmodium falciparum, 3D7, 96 h

| Compound | EC50 [1, 6] | Pf3D7 selectivity index (SI, CC50/EC50) [1] | CC50 [2] [µM] | EC50 [3] | Antiplasmodial activity against K1 strain (in words) [3] | EC50 [4] [µM] | also measured |
| --- | --- | --- | --- | --- | --- | --- | --- |
| COc1ccc(NC(=O)CC2=CCC3CC2C3(C)C)c2ncccc12 (single isomer, unassigned) [Compound 1] | 5.25 ± 0.7 µM | 13.4 | 70.8 ± 1.26 | – | – | – | – |
| COc1ccc(NC(=O)CC2=CCC3CC2C3(C)C)c2ncccc12 (single isomer, unassigned) [Compound 2] | 2.72 ± 0.28 µM | > 58.8 | > 160 | – | – | – | – |
| CC1(C)C2CC=C(CC(=O)Nc3cccc4cccnc34)C1C2 (single isomer, unassigned) [Compound 3, 2-(6,6-dimethylbicyclo[3.1.1]hept-2-en-2-yl)-N-(quinolin-8-yl) Acetamide] | 2.19 ± 0.15 µM | > 73.1 | > 160 | > 50 µM | inactive | > 50 | Antiplasmodial activity against NF54 strain (in words) [4]: inactive |
| CC1(C)C2CC=C(CC(=O)Nc3cccc4cccnc34)C1C2 (single isomer, unassigned) [Compound 4, 2-(6,6-dimethylbicyclo[3.1.1]hept-2-en-2-yl)-N-(quinolin-8-yl) Acetamide] | 2.57 ± 0.02 µM | > 62.3 | > 160 | > 50 µM | inactive | > 50 | Antiplasmodial activity against NF54 strain (in words) [4]: inactive |
| Cc1cc(C(=O)OCCC2=CC[C@@H]3C[C@H]2C3(C)C)c2ccc(Cl)cc2n1 (stereo in doubt) [Compound 13, 2-((1S,5R)-6,6-dimethylbicyclo[3.1.1]hept-2-en-2-yl)ethyl-7-chloro-2-methylquinoline-4-carboxylate] | – | > 6.9 | – | – | – | – | EC50 [1, 7]: 23 ± 2 µM; Antiplasmodial activity against Pf3D7 (in words) [1]: very weak antiplasmodial activity; CC50 at 72 h ([5]; read-out: Hep G2 CC50): > 160 µM |
| CC1(C)[C@@H]2CC=C(CCOC(=O)c3cc4ccccc4nc3Cl)[C@H]1C2 (stereo in doubt) [Compound 14, 2-((1S,5R)-6,6-dimethylbicyclo[3.1.1]hept-2-en-2-yl)ethyl-2-chloroquinoline-3-carboxylate] | – | 13.6 | – | – | inactive | – | EC50 [1, 7]: 4.04 ± 0.03 µM; Antiplasmodial activity against Pf3D7 (in words) [1]: moderately active; CC50 at 72 h ([5]; read-out: Hep G2 CC50): 55.2 ± 1.2 µM; Antiplasmodial activity against NF54 strain (in words) [4]: inactive |
| Cc1cc(C(=O)OCC[C@@]23O[C@@H]2C[C@@H]2C[C@H]3C2(C)C)c2ccc(Cl)cc2n1 (stereo in doubt) [Compound 16, 2-((1S,2S,4R,6S)-7,7-dimethyl-3-oxatricyclo[4.1.1.0 2,4]octan-2-yl)ethyl-7-chloro-2-methylquinoline-4-carboxylate] | – | 1.9 | – | – | – | – | EC50 [1, 7]: 40.4 ± 1.58 µM; Antiplasmodial activity against Pf3D7 (in words) [1]: weakly active but nonselective; CC50 at 72 h ([5]; read-out: Hep G2 CC50): 76.8 ± 6.5 µM |
| C[C@@H]1CC[C@H]2[C@@H](C)C(=O)O[C@@H]3O[C@@]4(C)CC[C@@H]1[C@]32OO4 [Artemisinin, reference compound] | – | – | – | – | – | – | EC50 ([3]; Plasmodium falciparum, 72 h): 0.011 ± 0.005 µM; EC50 ([4]; Plasmodium falciparum, 72 h): 0.017 ± 0.005 µM |
| CCN(CC)CCCC(C)Nc1ccnc2cc(Cl)ccc12 (stereo not shown) [Chloroquine, reference compound] | – | – | – | – | – | – | EC50 [1, 8]: 0.004 ± 0.001 µM |
| CC1(C)[C@@H]2CC=C(CC(=O)Nc3ccnc4ccccc34)[C@H]1C2 [Compound 5, 2-((1S,5R)-6,6-dimethylbicyclo[3.1.1]hept-2-en-2-yl)-N-(quinolin-4-yl) Acetamide] | 26.4 ± 1.7 µM | 0.2 | 3.98 ± 0.7 | 13.9 ± 2.1 µM | weakly active | 23.4 ± 0.14 | PfK1 selectivity index (SI, CC50/EC50) [3]: 0.3; Antiplasmodial activity against NF54 strain (in words) [4]: weakly active; PfNF54 selectivity index (SI, CC50/EC50) [4]: 0.2 |
| CC1(C)[C@H]2CC=C(CCOC(=O)c3cc4ccccc4[nH]3)[C@@H]1C2 [Compound 15, 2-((1R,5S)-6,6-dimethylbicyclo[3.1.1]hept-2-en-2-yl)ethyl-1H-indole-2-carboxylate] | – | > 8.5 | – | – | – | – | EC50 [1, 8]: 4.71 ± 0.07 µM; Antiplasmodial activity against Pf3D7 (in words) [1]: moderately active; CC50 at 72 h ([5]; Hep G2 cells (human hepatocarcinoma cell line)): > 40 µM |
| OC(c1cc(C(F)(F)F)nc2c(C(F)(F)F)cccc12)C1CCCCN1 (stereo not shown) [Mefloquine, reference compound] | – | – | – | – | – | – | EC50 [1, 7]: 2.33 ± 2.29 µM; EC50 ([3]; Plasmodium falciparum, 72 h): 0.117 ± 0.015 µM; EC50 ([4]; Plasmodium falciparum, 72 h): 0.003 ± 0.002 µM |

Continued, in another order:

| EC50 [1, 6] | Compound | Pf3D7 selectivity index (SI, CC50/EC50) [1] | CC50 [2] [µM] | EC50 [3] | Antiplasmodial activity against K1 strain (in words) [3] | EC50 [4] [µM] | also measured |
| --- | --- | --- | --- | --- | --- | --- | --- |
| 17.1 ± 1.8 µM | CC1(C)[C@@H]2CC=C(CC(=O)Nc3ccnc4cc(Cl)ccc34)[C@H]1C2 [Compound 6, N-(7-chloroquinolin-4-yl)-2-((1S,5R)-6,6-dimethylbicyclo[3.1.1]hept-2-en-2-yl) Acetamide] | 0.8 | 14.3 ± 1.2 | 7.84 ± 0.57 µM | weakly active | 21.4 ± 1.7 | PfK1 selectivity index (SI, CC50/EC50) [3]: 1.8; Antiplasmodial activity against NF54 strain (in words) [4]: weakly active; PfNF54 selectivity index (SI, CC50/EC50) [4]: 0.7 |
| > 50 µM | CC1(C)[C@@H]2CC=C(CC(=O)Oc3ccnc4ccccc34)[C@H]1C2 [Compound 7, quinolin-4-yl-2-((1S,5R)-6,6-dimethylbicyclo[3.1.1]hept-2-en-2-yl) Acetate] | – | > 160 | > 28 µM | – | > 50 | – |
| > 50 µM | CC1(C)[C@@H]2CC=C(CC(=O)Oc3ccnc4cc(Cl)ccc34)[C@H]1C2 [Compound 8, 7-chloroquinolin-4-yl-2-((1S,5R)-6,6-dimethylbicyclo[3.1.1]hept-2-en-2-yl) Acetate] | – | > 160 | 0.16 µM and 0.164 µM | sub-micromolar EC50 | 23.3 | PfK1 selectivity index (SI, CC50/EC50) [3]: > 976; PfNF54 selectivity index (SI, CC50/EC50) [4]: > 6.8 |
| 6.2 µM and 6.15 µM | Cc1cc(OC(=O)CC2=CC[C@@H]3C[C@H]2C3(C)C)c2ccc(Cl)c(C)c2n1 [Compound 9, 7-chloro-2,8-dimethylquinolin-4-yl-2-((1S,5R)-6,6-dimethylbicyclo[3.1.1]hept-2-en-2-yl) Acetate] | > 26 | > 160 | – | – | – | – |
| 21.4 ± 5.06 µM | CC1(C)[C@@H]2CC=C(CC(=O)Oc3cc(C(F)(F)F)nc4ccc(F)cc34)[C@H]1C2 [Compound 10, 6-fluoro-2-(trifluoromethyl)quinolin-4-yl-2-((1S,5R)-6,6-dimethylbicyclo[3.1.1]hept-2-en-2yl) Acetate] | 2.3 | 48.5 ± 1.12 | – | – | – | – |
| 17.6 ± 5.27 µM | Cc1c(Cl)ccc2c(OC(=O)CC3=CC[C@@H]4C[C@H]3C4(C)C)ccnc12 [Compound 11, 7-chloro-8-methylquinolin-4-yl-2-((1S,5R)-6,6-dimethylbicyclo[3.1.1]hept-2-en-2-yl) Acetate] | >9.1 | > 160 | – | – | – | – |
| 29.6 ± 0.93 µM | CC1(C)[C@@H]2CC=C(CC(=O)Oc3cc(C(F)(F)F)nc4c(C(F)(F)F)cccc34)[C@H]1C2 [Compound 12, 2,8-bis(trifluoromethyl)quinolin-4-yl-2-((1S,5R)-6,6-dimethylbicyclo[3.1.1]hept-2-en-2-yl) Acetate] | 0.7 | 21.8 ± 1.1 | – | – | – | – |
